Data on 85 molecules can be found in PubChem BioAssay AID493058 (The Scripps Research Institute Molecular Screening Center, 2011).

Each structure is given as a SMILES string. Activity calls are given as the source filed them.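 Rule for the calls: active = EC50 of 10 µM or lower; inactive = EC50 above 10 µM.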

This experiment has as its system DHL10 Bax/Bak-deficient cells, cytotoxicity, MTS absorbance. Briefly: cytotoxicity in Bax/Bak-deficient DHL10 cells, late-stage follow-up, counter-screen for MCL1-BIM inhibitor project, cell-based, MTS absorbance, EC50 (AID 493058). On the technique in general: The purpose of a counterscreen is to sort out artefacts and off-target activity.
Broadly, the EC50 is the concentration needed to bring the measured effect to its halfway point. For `COc1ccc(NC(=O)c2cc(-c3ccco3)nc3ccccc23)cn1`, the EC50 was > 25 µM (inactive). To `Cc1ccnc(NC(=O)c2cc(-c3ccc(C)o3)nc3ccccc23)c1` belongs > 25 µM (inactive). To `Cc1ccc2nc(NC(=O)c3cc(-c4ccco4)nc4ccccc34)sc2c1` belongs > 25 µM (inactive); to `COCCCN(C(=O)c1cc(-c2ccco2)nc2ccccc12)c1c(N)n(Cc2ccccc2)c(=O)[nH]c1=O`, > 25 µM (inactive); to `COc1cccc(NC(=O)CN(C)C(=O)c2cc(-c3ccco3)nc3ccccc23)c1`, > 25 µM (inactive). To `Cc1ccc(-c2cc(C(=O)N3CCCC(C(F)(F)F)C3)c3ccccc3n2)o1` (stereo not given) belongs > 25 µM (inactive); to `O=C(Nc1cccc(S(=O)(=O)NC2=NCCC2)c1)c1cc(-c2ccco2)nc2ccccc12`, > 25 µM (inactive).

Turning to `O=C(Nc1cccnc1)c1cc(-c2ccco2)nc2ccc(Br)cc12`, the EC50 is > 25 µM (inactive). `CCCC(=O)Nc1nnc(Cc2ccccc2)s1`: the EC50 is > 25 µM (inactive). To `COc1cccc(NC(=O)c2cc(-c3ccc(C)o3)nc3ccccc23)c1` belongs > 25 µM (inactive). `COc1ccc(Cc2nnc(NC(=O)C(F)c3ccccc3)s2)cc1OC` (stereo not given): the EC50 is > 25 µM (inactive). To `CN(CCOc1ccc(Cl)cc1)C(=O)c1cc(-c2ccco2)nc2ccccc12` belongs > 25 µM (inactive); to `O=C(CCn1nnc2ccccc21)Nc1nnc(Cc2ccc(F)cc2)s1`, > 25 µM (inactive); to `O=C(NCCCN1CCOCC1)c1cc(-c2ccco2)nc2ccccc12`, > 25 µM (inactive).

For the molecule `CN(C)C(CNC(=O)c1cc(-c2ccco2)nc2ccccc12)c1ccccc1` (stereo not given), the EC50 was > 25 µM (inactive). With `COC(=O)C1CCN(C(=O)c2cc(-c3ccco3)nc3ccccc23)CC1`, the EC50 is > 25 µM (inactive). To `CCCCCCNC(=O)c1cc(-c2ccco2)nc2ccccc12` belongs > 25 µM (inactive). To `O=C(Nc1ccccc1F)c1cc(-c2ccco2)nc2ccccc12` belongs > 25 µM (inactive).

As for `CN(CC(=O)Nc1cccc(F)c1)C(=O)c1cc(-c2ccco2)nc2ccccc12`, the EC50 is > 25 µM (inactive). To `COc1ccc(Cc2nnc(NC(=O)Cc3ccc4ccccc4c3)s2)cc1OC` belongs > 25 µM (inactive). To `COc1ccc(Cc2nnc(NC(=O)Cc3cc(F)cc(F)c3)s2)cc1OC` belongs > 25 µM (inactive); to `O=C(Nc1ccc(F)cc1F)c1cc(-c2ccco2)nc2ccccc12`, > 25 µM (inactive); to `CCCn1c(N)c(N(CCOC)C(=O)c2cc(-c3ccco3)nc3ccccc23)c(=O)[nH]c1=O`, > 25 µM (inactive). In the case of `O=C(NC1CC1)c1cc(-c2ccco2)nc2ccccc12`, the EC50 is > 25 µM (inactive). To `COc1cccc(CC(=O)Nc2nnc(Cc3ccc(OC)c(OC)c3)s2)c1` belongs > 25 µM (inactive). To `COc1cccc(NC(=O)c2cc(-c3ccco3)nc3ccccc23)c1` belongs > 25 µM (inactive); to `COc1ccc(Cc2nnc(CC(=O)Nc3cccs3)s2)cc1`, > 25 µM (inactive). On to `COc1ccc(CC(=O)Nc2nnc(Cc3ccc(OC)c(OC)c3)s2)cc1`, for which the EC50 is > 25 µM (inactive).

Take `Cc1ccc(-c2cc(C(=O)Nc3ccccc3C)c3ccccc3n2)o1`: the EC50 was > 25 µM (inactive). To `COc1ccc(Cc2nnc(NC(=O)Cc3csc4ccccc34)s2)cc1OC` belongs > 25 µM (inactive). To `COc1ccc(Cc2nnc(NC(=O)CCc3ccco3)s2)cc1OC` belongs > 25 µM (inactive); to `O=C(Nc1nc2ccccc2s1)c1cc(-c2ccco2)nc2ccccc12`, > 25 µM (inactive). To `O=C(c1cc(-c2ccco2)nc2ccccc12)N1CCCC(C(F)(F)F)C1` (stereo not given) belongs > 25 µM (inactive); to `Cc1ccc(-c2cc(C(=O)Nc3ccccn3)c3ccccc3n2)o1`, > 25 µM (inactive). For the molecule `O=C(NC1CCC(O)CC1)c1cc(-c2ccco2)nc2ccccc12` (stereo not given), the EC50 was > 25 µM (inactive). To `O=C(Cc1cccs1)Nc1nnc(Cc2ccccc2)s1` belongs > 25 µM (inactive); to `COc1ccc(NC(=O)c2cc(-c3ccco3)nc3ccccc23)cc1S(=O)(=O)N1CCOCC1`, > 25 µM (inactive).

Regarding `CCN(CC)C(=O)COc1ccc2c(-c3ccccc3)cc(=O)oc2c1`, the EC50 is > 25 µM (inactive).

As for `Cc1ccc(-c2cc(C(=O)Nc3ccccc3C(N)=O)c3ccccc3n2)o1`, the EC50 was > 25 µM (inactive). To `CCC(=O)Nc1nnc(Cc2ccccc2)s1` belongs > 25 µM (inactive); to `Cc1ccc(-c2cc(C(=O)NCC(c3ccccc3)N(C)C)c3ccccc3n2)o1` (stereo not given), > 25 µM (inactive). To `CN(CCOc1ccccc1)C(=O)c1cc(-c2ccco2)nc2ccccc12` belongs > 25 µM (inactive); to `COc1ccc(CCNC(=O)c2cc(-c3ccco3)nc3ccccc23)cc1`, > 25 µM (inactive). To `Cc1ccc(-c2cc(C(=O)Nc3nccs3)c3ccccc3n2)o1` belongs > 25 µM (inactive). Regarding `COc1ccc(Cc2nnc(NC(=O)Cc3cccc(Br)c3)s2)cc1OC`, the EC50 was > 25 µM (inactive).

With `Cc1ccc(S(=O)(=O)N(C)C)cc1NC(=O)c1cc(-c2ccco2)nc2ccccc12`, the EC50 is > 25 µM (inactive). To `CC(C)CCNC(=O)c1cc(-c2ccco2)nc2ccccc12` belongs > 25 µM (inactive).

As for `CCCCn1c(N)c(N(CCC(C)C)C(=O)c2cc(-c3ccco3)nc3ccccc23)c(=O)[nH]c1=O`, the EC50 was > 25 µM (inactive). To `Cc1ccc(-c2cc(C(=O)Nc3cccnc3)c3ccccc3n2)o1` belongs > 25 µM (inactive); to `COc1ccc(Cc2nnc(NC(=O)c3cc(-c4ccco4)nc4ccc(Br)cc34)s2)cc1OC`, 20 µM (inactive); to `O=C(NCC1CCCO1)c1cc(-c2ccco2)nc2ccccc12` (stereo not given), > 25 µM (inactive).

On to `CCCCN(C(=O)c1cc(-c2ccco2)nc2ccccc12)c1c(N)n(CCCC)c(=O)[nH]c1=O`, for which the EC50 was > 25 µM (inactive). To `COc1ccc(Cc2nnc(NC(=O)c3cc(-c4ccc(C)o4)nc4ccccc34)s2)cc1OC` belongs 25 µM (inactive). To `CC(=O)c1cccc(NC(=O)c2cc(-c3ccco3)nc3ccccc23)c1` belongs > 25 µM (inactive); to `CCCCn1c(N)c(N(CCOC)C(=O)c2cc(-c3ccco3)nc3ccccc23)c(=O)[nH]c1=O`, > 25 µM (inactive); to `CCOC(=O)c1cc(-c2ccco2)nc2c1c(C)nn2-c1cccc(Cl)c1`, > 25 µM (inactive). To `COc1ccc(Cc2nnc(NC(=O)Cc3c[nH]c4ccccc34)s2)cc1OC` belongs > 25 µM (inactive).

Consider `COc1ccc(-c2cc(=O)oc3cc(OCC(=O)N4CC4)ccc23)cc1`, for which the EC50 was > 25 µM (inactive). To `COc1ccc(Cc2nnc(NC(=O)Cc3ccc(N(C)C)cc3)s2)cc1OC` belongs > 25 µM (inactive). To `O=C(c1cc(-c2ccco2)nc2ccccc12)N1CCN(Cc2ccccc2)CC1` belongs > 25 µM (inactive); to `CCOC(=O)c1cc(-c2ccco2)nc2c1c(C)nn2-c1ccccc1`, > 25 µM (inactive). For the molecule `COc1ccc(Cc2nnc(NC(=O)Cc3ccsc3)s2)cc1OC`, the EC50 was > 25 µM (inactive).

In the case of `COCCN(C(=O)c1cc(-c2ccco2)nc2ccccc12)c1c(N)n(Cc2ccccc2)c(=O)[nH]c1=O`, the EC50 was > 25 µM (inactive).

For the molecule `COc1cccc(NC(=O)CN(C)C(=O)c2cc(-c3ccc(C)o3)nc3ccccc23)c1`, the EC50 is > 25 µM (inactive). To `COc1ccc(Cc2nnc(NC(=O)Cc3ccccc3C)s2)cc1OC` belongs > 25 µM (inactive); to `Cc1nnc(NC(=O)c2cc(-c3ccco3)nc3ccccc23)s1`, > 25 µM (inactive); to `Cc1ccc(NC(=O)c2cc(-c3ccco3)nc3ccccc23)cc1S(=O)(=O)N1CCOCC1`, > 25 µM (inactive). As for `O=C(Nc1cccc(F)c1)c1cc(-c2ccco2)nc2ccccc12`, the EC50 is > 25 µM (inactive). To `COc1ccc(Cc2nnc(NC(=O)Cc3ccc4c(c3)OCO4)s2)cc1OC` belongs > 25 µM (inactive); to `O=C(Nc1nccs1)c1cc(-c2ccco2)nc2ccccc12`, > 25 µM (inactive); to `COc1ccc(NC(=O)CN(C)C(=O)c2cc(-c3ccc(C)o3)nc3ccccc23)cc1`, > 25 µM (inactive). To `COc1ccc(Cc2nnc(NC(=O)Cc3ccc(C)cc3)s2)cc1OC` belongs > 25 µM (inactive).

Take `CCN(CC)CCNC(=O)c1cc(-c2ccco2)nc2ccccc12`: the EC50 was > 25 µM (inactive). To `Cc1ccc(NC(=O)c2cc(-c3ccc(C)o3)nc3ccccc23)cc1` belongs > 25 µM (inactive).

`Cc1ccc(NC(=O)c2cc(-c3ccc(C)o3)nc3ccccc23)nc1`: the EC50 is > 25 µM (inactive).

As to `CN(CC(=O)Nc1ccc(F)cc1)C(=O)c1cc(-c2ccco2)nc2ccccc12`, the EC50 is > 25 µM (inactive). To `CCN1CCN(C(=O)c2cc(-c3ccco3)nc3ccccc23)CC1` belongs > 25 µM (inactive); to `COc1ccccc1CC(=O)Nc1nnc(Cc2ccc(OC)c(OC)c2)s1`, > 25 µM (inactive).

In the case of `O=C(c1cc(-c2ccco2)nc2ccccc12)N(Cc1nnc(-c2ccc(Cl)cc2)o1)C1CC1`, the EC50 was > 25 µM (inactive).

For `Cc1cccc(NC(=O)c2cc(-c3ccc(C)o3)nc3ccccc23)n1`, the EC50 is > 25 µM (inactive). To `O=C(Nc1nncs1)c1cc(-c2ccco2)nc2ccccc12` belongs > 25 µM (inactive); to `Cc1ccc(-c2cc(C(=O)N3CCOCC3)c3ccccc3n2)o1`, > 25 µM (inactive); to `Cc1cccc(NC(=O)c2cc(-c3ccco3)nc3ccc(Br)cc23)n1`, 10 µM. To `CCN(CC)C(=O)COc1ccc2c(-c3ccc(OC)cc3)cc(=O)oc2c1C` belongs > 25 µM (inactive). Turning to `CC1CCCN(C(=O)c2cc(-c3ccco3)nc3ccccc23)C1` (stereo not given), the EC50 was > 25 µM (inactive).
